Experimental data: patent US5665886A, “Salts of substituted nitrogenous heteroaromatic compounds, a process for their preparation and pharmaceutical compositions containing them” (Sanofi, priority 1994, dated 1997)

System: substance P receptor NK1
Experiment: Binding (inhibition of fixation) of [125I]BH-SP to NK1 receptors in rat cortex, guinea pig ileum and human lymphoblastic cells
Description: The affinity of compounds for tachykinin receptors has been evaluated in vitro by a number of biochemical tests using radioligands: 1) Bonding of [^125 I]BH-SP (substance P labelled with iodine-125 using a Bolton-Hunter reagent) to NK1 receptors in the rat cortex, the guinea pig ileum and human lymphoblastic cells. The tests were carried out as described in X. Emonds et al., (Eur. J. Pharmacol., 1993, 250, 403-413).

| SMILES | antagonism of substance P receptor NK1 |
| --- | --- |
| CC(C)Oc1cccc(CC(=O)N(C)CC(CC[n+]2ccc(Cc3ccccc3)cc2)c2ccc(Cl)c(Cl)c2)c1 (centres unmarked) [Example 2, 4-benzyl-1-[3-(3,4-dichlorophenyl)-4)-4-[N-methyl-(3-iso-propyloxyphenyl)acetylamino]butyl]pyridinium methanesulfonate dihydrate] | powerful antagonists |
| CC(C)Oc1cccc(CC(=O)N2CCCC(CC[n+]3ccc(Cc4ccccc4)cc3)(c3ccc(Cl)c(Cl)c3)C2)c1.O.O.[Cl-] (centres unmarked) [Example 4, 4-benzyl-1-[2-[3-(3,4-dichlorophenyl)-1-[(3-isopropoxyphenyl)-acetyl]piperidin-3-yl]ethyl]pyridinium chloride dihydrate] | powerful antagonists |
